Assay results: PubChem BioAssay (NCI)
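Each compound was tested at five concentrations against cells in 96-well plates for 48 hours. At the GI50, growth is halved. At the TGI there is no net growth.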

Tests used:
Experiment in all cases: NCI tumour cell line growth inhibition, 48 h
COLO 205 colon = test system: COLO 205 colon
DU-145 prostate = test system: DU-145 prostate
HL-60(TB) leukemia = test system: HL-60(TB) leukemia
HT29 colon = test system: HT29 colon
OVCAR-3 ovarian = test system: OVCAR-3 ovarian
RXF 393 renal = test system: RXF 393 renal
SK-MEL-2 melanoma = test system: SK-MEL-2 melanoma
SK-MEL-28 melanoma = test system: SK-MEL-28 melanoma
SW-620 colon = test system: SW-620 colon
UACC-257 melanoma = test system: UACC-257 melanoma

Compound | GI50 (COLO 205 colon) | TGI (COLO 205 colon) | GI50 (DU-145 prostate) | TGI (DU-145 prostate) | GI50 (HL-60(TB) leukemia) | TGI (HL-60(TB) leukemia) | GI50 (HT29 colon) | TGI (HT29 colon) | GI50 (OVCAR-3 ovarian) | TGI (OVCAR-3 ovarian) | GI50 (RXF 393 renal) | TGI (RXF 393 renal) | GI50 (SK-MEL-2 melanoma) | TGI (SK-MEL-2 melanoma) | GI50 (SK-MEL-28 melanoma) | TGI (SK-MEL-28 melanoma) | GI50 (SW-620 colon) | TGI (SW-620 colon) | GI50 (UACC-257 melanoma) | TGI (UACC-257 melanoma)
COc1ccc(-c2c(-c3cc(OC)c4c(c3)OCO4)noc2N)cc1 | 0.0347 µM | 0.122 µM | 0.041 µM | 1.97 µM | 0.0351 µM | 13.7 µM | 0.0353 µM | 1.63 µM | 0.0203 µM | 0.0483 µM | 0.0167 µM | 0.0627 µM | 0.0324 µM | 21.5 µM | 0.872 µM | 33.4 µM | 0.0289 µM | > 100 µM |  | 
N#Cc1ccc(C(c2ccc(C#N)cc2)n2cncn2)cc1 | > 5000 µM | > 5000 µM | > 5000 µM | > 5000 µM | > 5000 µM | > 5000 µM | > 5000 µM | > 5000 µM | > 5000 µM | > 5000 µM | 18.3 µM |  |  |  |  | > 5000 µM | > 5000 µM | > 5000 µM | > 5000 µM | > 5000 µM
O=C(Oc1ccccc1Cl)c1ccccc1Nc1ccnc(C(F)(F)F)c1 |  |  | 3.42 µM | 13.3 µM | 0.472 µM | > 100 µM | 0.389 µM | > 100 µM | 0.247 µM | 0.533 µM |  |  | 26.4 µM | > 100 µM |  |  | 0.15 µM | 20 µM |  | 
Cc1nc2n(c(=O)c1CCN1CCC(c3noc4cc(F)ccc34)CC1)CCCC2 | > 50 µM | > 50 µM | > 50 µM | > 50 µM | > 50 µM | > 50 µM | > 50 µM | > 50 µM | > 50 µM | > 50 µM | > 50 µM | > 50 µM | > 50 µM | > 50 µM | > 50 µM | > 50 µM | > 50 µM | > 50 µM |  | 
CNC1C(O)C(OC2C(N)CC(N)C(OC3OC(C(C)O)C(O)C(O)C3N)C2O)OCC1(C)O (stereo not drawn) |  | > 100 µM |  | > 100 µM |  | > 100 µM |  | > 100 µM |  | > 100 µM |  |  |  | > 100 µM |  | > 100 µM |  | > 100 µM |  | 
Nc1nnc(Cn2c(-c3ccccc3)nc3ccc(Br)cc3c2=O)s1 | 64.6 µM | > 100 µM | 85.4 µM | > 100 µM |  |  | 48.1 µM | > 100 µM | 40 µM | > 100 µM |  |  | > 100 µM | > 100 µM | > 100 µM | > 100 µM | 36.1 µM | > 100 µM |  | 
O=C([O-])c1ccc(C(=O)[O-])cc1.O=C([O-])c1ccc(C(=O)[O-])cc1.[Mo+2].[Mo+2] | > 100 µM | > 100 µM |  |  | > 100 µM | > 100 µM | > 100 µM | > 100 µM | > 100 µM | > 100 µM | > 100 µM | > 100 µM | > 100 µM | > 100 µM | > 100 µM | > 100 µM | > 100 µM | > 100 µM | > 100 µM | > 100 µM
CCC1CCc2nc3sc(C(=O)Nc4ccccc4C)c(N)c3cc2C1 (stereo not drawn) | 0.451 µM | > 100 µM | 0.485 µM | > 100 µM | 0.214 µM | 0.617 µM |  |  | 0.351 µM | > 100 µM | 0.316 µM | 40.7 µM | 0.46 µM | > 100 µM | 0.623 µM | > 100 µM | 0.388 µM | > 100 µM | 0.486 µM | > 100 µM
COc1ccc(C(=O)c2cc3c(N)c(C(=O)Nc4cccc(Cl)c4C)sc3nc2C)cc1 | 0.109 µM | 7.13 µM | 0.105 µM | > 25 µM | 0.0759 µM | 0.226 µM | 0.0863 µM | > 25 µM | 0.0872 µM | > 25 µM |  |  | 0.215 µM | > 25 µM | > 25 µM | > 25 µM | 0.105 µM | > 25 µM | > 6.12 µM | > 25 µM
COc1ccc(-c2cc(-c3cc(OC)c(OC)c(OC)c3)c(C#N)c(N3CCOCC3)n2)cc1O | 21.5 µM | > 100 µM | 5.3 µM | > 100 µM | 1.34 µM | 3.87 µM | 10.3 µM | > 100 µM | 2.81 µM | 8.33 µM |  |  | 13.5 µM | > 100 µM | > 21.8 µM | > 94.8 µM | 3.87 µM | > 100 µM | 38.4 µM | > 100 µM
NC(=O)/C=C/NC(=O)/C=N\O |  | > 100 µM |  | > 100 µM |  | > 100 µM |  | > 100 µM |  | > 100 µM |  | > 100 µM |  |  |  | > 100 µM |  | > 100 µM |  | > 100 µM
O=[N+]([O-])c1ccc(Sc2c3ccccc3nc3ccccc23)nc1 |  | 6.39 µM |  | 14.3 µM |  |  |  | 8.62 µM |  | 11.2 µM |  | 7.08 µM |  | 38.8 µM |  | 15.6 µM |  | 4.79 µM |  | 19.2 µM
O=C(CC(=O)C1CCOC1=O)C(=O)Nc1ccc(Cl)cc1Cl (stereo not drawn) |  | > 100 µM |  |  |  | > 100 µM |  | > 100 µM |  | > 100 µM |  | > 100 µM |  | > 100 µM |  | > 100 µM |  | > 100 µM |  | > 100 µM
O=C1C(Cl)=C(Nc2cccc(O)c2)C(=O)N1c1ccccc1Cl | 30.3 µM | > 100 µM | 30.9 µM | > 100 µM |  |  | 24.6 µM | 89.2 µM | 21.5 µM | 48.5 µM | 7.87 µM | 41.2 µM | 25.5 µM | 61.6 µM | 58 µM | > 100 µM | 52.3 µM | > 100 µM |  | 
CC/C(C)=C1\OC(=O)C(C)C(O)C(Cc2cccnc2)NC(=O)C(NC(=O)c2ncccc2O)C(C)OC1=O (stereo not drawn) |  | > 100 µM |  | > 100 µM |  | > 100 µM |  | > 100 µM |  | > 100 µM |  |  |  | > 100 µM |  | > 100 µM |  | > 100 µM |  | > 100 µM
CCOC(=O)NC(=O)c1cn(CCN2CCN(C(=O)CCCCCCCCCCNc3ncnc4nc[nH]c34)CC2)c(=O)[nH]c1=O |  | > 100 µM |  |  |  | > 100 µM |  | > 100 µM |  | > 100 µM |  | > 100 µM |  | > 100 µM |  | > 100 µM |  | > 100 µM |  | > 100 µM
CCCCCC/C=C\CCCCCCCCCC1=CC(=O)C=C(OC)C1=O |  | 3.24 µM |  | 38 µM |  |  |  | 11.8 µM |  | 17.6 µM |  | 13.1 µM |  | 18.3 µM |  | 25.7 µM |  | 17.5 µM |  | 9.11 µM
